Results from patent US20140315991A1, “COMPOSITION FOR TREATMENT OF EPITHELIAL TISSUE” (NOVODERMIX INTERNATIONAL LIMITED, priority 2008, published 2014).

Test system: mature atrophic post-Acne facial scarring
Experiment: randomized, triple-blind study in mature atrophic post-Acne facial scarring (Example 7)
Assay type: in vivo, human
Design: transient reduction in vision (adverse event, one patient): unit not given here
Experimental: A randomized, triple-blind study was conducted on 35 patients in two sites in India (Amritsar and Faridkot). Ethnic skin patients (Fitzpatrick 4-5) with mature atrophic post-Acne facial scarring (scar age >2 years) were randomly assigned to one of four study arms: topical Topiramate 5.0% (n=10), topical Topiramate 2.5% (n=9), oral Topiramate 25 mg (n=8) and topical placebo (n=7). Patients applied the topical formulation once a day on both cheeks for 3 months. Clinical assessment was performed at 6 weeks and 3 months using a visual analog scale (VAS) by the patients and 3 independent observers (2 plastic surgeons and 1 general surgeon) who scored side-by-side cheek photos (before and after treatment).
Thirty five patients completed the study, and a total of 57 cheeks (topical Topiramate 5%—n=18; topical Topiramate 2.5%—n=19; oral Topiramate—n=13; topical Placebo—n=7) were evaluated and scored.

CC1(C)O[C@@H]2[C@@H](CO[C@@]3(COS(N)(=O)=O)OC(C)(C)O[C@@H]23)O1 [Topiramate]
advantage of the study group over the control (topical placebo) (day 42): 95%
improvement (visual analog scale, patients and 3 independent observers) (day 42, once a day): 13.91%
advantage of the study group over the control (topical placebo) (day 90): 102%
improvement (visual analog scale, patients and 3 independent observers) (day 90, once a day): 34.69%
transient reduction in vision (adverse event, one patient) (from 20/20, within 2 days from starting 25 mg oral, returned to 20/20 within 7 days from stopping): −5.00
